Laboratory results: PMC11538350, “Synthetic studies on the tetrasubstituted D-ring of cystobactamids lead to potent terephthalic acid antibiotics” (Communications Chemistry, 2024)
Converted amounts (≈) assume the structure as drawn.

How the values were obtained:
[1] = metabolic stability assay, mouse microsomes; conditions: Table S4
[2] = tested on: A. baum. R835; experiment: MIC assay; assay type: cell-based; conditions: Acinetobacter baumannii; read-out: MIC A. baum. R835
Experimental: (§1) All cystobactamids were evaluated in MIC-assays on a panel of representative ESKAPE strains with focus on A. baumannii (Tables 1 and 2). Compared to our previous work[10],[17],[18], we specifically included more challenging test strains with known resistances against gyrase inhibitors.
(§2) 2.1 Materials and Methods
(§3) Strains were cultivated according to standard procedures. Bacterial cryo-cultures were
(§4) resuspended into fresh MHBII (cation adjusted) medium. The resuspension
(§5) assay plate (Corning, #3788).
(§6) in parallel as a positive control. […]

[3] = tested on: P. ae. PA14ΔmexAB; experiment: MIC assay; assay type: cell-based; conditions: Pseudomonas aeruginosa, read-out: MIC P. ae. PA14ΔmexAB
Experimental: as §1, §2, §3, §4, §5, §6

[4] = tested on: A. baum. ATCC BAA-1710; experiment: MIC assay; assay type: cell-based; conditions: Acinetobacter baumannii, ATCCBAA1710; read-out: MIC A. baum. ATCC BAA-1710
Experimental: as §1, §2, §3, §4, §5, §6

[5] = tested on: P. ae. PA14; experiment: MIC assay; assay type: cell-based; conditions: Pseudomonas aeruginosa, PA14; reference strain; read-out: MIC P. ae. PA14
Experimental: as §1, §2, §3, §4, §5, §6

[6] = tested on: E. coli LM705; experiment: MIC assay; assay type: cell-based; conditions: Escherichia coli, LM705, read-out: MIC E. coli LM705
Experimental: as §1, §2, §3, §4, §5, §6

[7] = tested on: S. aur. ATCC-29213; experiment: MIC assay; assay type: cell-based; conditions: Staphylococcus aureus, ATCC29213; reference strain; read-out: MIC S. aur. ATCC-29213
Experimental: as §1, §2, §3, §4, §5, §6

[8] = tested on: E. cloacae ATCC BAA-2468; experiment: MIC assay; assay type: cell-based; conditions: Enterobacter cloacae, ATCCBAA2468; read-out: MIC E. cloacae ATCC BAA-2468
Experimental: as §1, §2, §3, §4, §5, §6

[9] = tested on: K. pneum. KP10581; experiment: MIC assay; assay type: cell-based; conditions: Klebsiella pneumoniae; read-out: MIC K. pneum. KP10581
Experimental: as §1, §2, §3, §4, §5, §6

[10] = tested on: E. coli ATCC-25922; experiment: MIC assay; assay type: cell-based; conditions: Escherichia coli, ATCC25922; reference strain; read-out: MIC E. coli ATCC-25922
Experimental: as §1, §2, §3, §4, §5, §6

[11] = tested on: K. pneum. R-1525; experiment: MIC assay; assay type: cell-based; conditions: Klebsiella pneumoniae; read-out: MIC K. pneum. R-1525
Experimental: as §1, §2, §3, §4, §5, §6

[12] = tested on: S. pneum. DSM-11865 (PRSP); experiment: MIC assay; assay type: cell-based; conditions: Streptococcus pneumoniae; read-out: MIC S. pneum. DSM-11865 (PRSP)
Experimental: as §1, §2, §3, §4, §5, §6

[13] = tested on: A. baum. CIP-107292; experiment: MIC assay; assay type: cell-based; conditions: Acinetobacter baumannii, CIP107292; read-out: MIC A. baum. CIP-107292
Experimental: as §1, §2, §3, §4, §5, §6

[14] = tested on: A. baum. CIP-105742; experiment: MIC assay; assay type: cell-based; conditions: Acinetobacter baumannii, CIP105742; read-out: MIC A. baum. CIP-105742
Experimental: as §1, §2, §3, §4, §5, §6

[15] = tested on: A. baum. DSM-30008; experiment: MIC assay; assay type: cell-based; conditions: Acinetobacter baumannii, DSM30008; reference strain; read-out: MIC A. baum. DSM-30008
Experimental: as §1, §2, §3, §4, §5, §6

[16] = tested on: K. pneum. CIP-104298; experiment: MIC assay; assay type: cell-based; conditions: Klebsiella pneumoniae, CIP104298; reference strain; read-out: MIC K. pneum. CIP-104298
Experimental: as §1, §2, §3, §4, §5, §6

[17] = for T1/2 PLASMA (H): human plasma; for T1/2 PLASMA (M): mouse plasma
Experimental: 2.1 Materials and Methods […]
Determination of in vitro ADME properties
7, 8, 11 and 42. All samples were analysed via HPLC -MS/MS.
HPLC-MS/MS analysis of cystobactamids
AB Sciex QTrap 6500plus mass spectrometer. LC conditions were as follows: column:
Samples were run under acidic
For plasma stability experiments, samples were procured from commercial sources.
Human plasma was obtained from Antibodies-online (catalog no. ABIN5706569), and mouse plasma was obtained from Tebubio (catalog no. D408-04-0050).
The methods were performed in accordance with relevant guidelines and regulations and approved by the Helmholtz Centre for Infection Research. […]

[18] = metabolic stability assay, human microsomes; conditions: second microsome column of Table S4, head prints (M); mouse and human microsomes
[19] = tested on: E. faec. DSM-17050 (VRE); experiment: MIC assay; assay type: cell-based, Enterococcus faecium; conditions: Enterococcus; read-out: MIC E. faec. DSM-17050 (VRE)
Experimental: as §1, §2, §3, §4, §5, §6

[20] = tested on: E. ae. CIP 106754; experiment: MIC assay; assay type: cell-based, Enterobacter aerogenes; conditions: Klebsiella aerogenes, CIP106754, read-out: MIC E. ae. CIP 106754
Experimental: as §1, §2, §3, §4, §5, §6

[21] = tested on: ESKAPE strains; experiment: MIC-assays on a panel of representative ESKAPE strains, summary in words; assay type: cell-based; conditions: summary of the MIC tables
Experimental: as §1, §2, §3, §4, §5, §6

Structure (SMILES)	T1/2 MICROSOMES (M) [1] [min]	MIC [2] [µg/mL]	MIC [3] [µg/mL]	MIC [4] [µg/mL]	MIC [5] [µg/mL]	MIC [6] [µg/mL]	MIC [7] [µg/mL]	MIC [8] [µg/mL]	MIC [9] [µg/mL]	MIC [10] [µg/mL]	MIC [11] [µg/mL]	MIC [12] [µg/mL]	MIC [13] [µg/mL]	MIC [14] [µg/mL]	MIC [15] [µg/mL]	MIC [16] [µg/mL]	T1/2 PLASMA (H) [17] [min]	T1/2 PLASMA (M) [17] [min]	MIC [19] [µg/mL]	MIC [20] [µg/mL]	further results
C#CC[C@H](NC(=O)c1ccc(NC(=O)c2ccc(C#N)cc2)cc1)C(=O)Nc1ccc(C(=O)Nc2ccc(C(=O)Nc3ccc(C(=O)O)cc3)c(F)c2OC(C)C)cc1 [Cmpd. 4]	> 60	> 8	> 64	> 8	> 64	> 64	> 64	> 64	> 64	4 (≈ 5.03 µM)	> 64	> 64	> 8	0.25 to 0.5 (≈ 0.315 to 0.629 µM)	0.06 (≈ 0.0755 µM)	> 64	> 240	> 240	4 (≈ 5.03 µM)	> 64	T1/2 MICROSOMES (M) [18]: > 60 min
C#CC[C@H](NC(=O)c1ccc(NC(=O)c2ccc(C#N)cc2)cc1)C(=O)Nc1ccc(C(=O)Nc2ccc(C(=O)Nc3ccc(C(=O)O)cc3)c(N)c2OC(C)C)cc1 [Cmpd. 7]	> 60	> 64		> 64		> 64	> 64	> 64	> 64	0.005 (≈ 0.00631 µM)	> 64	0.2 (≈ 0.253 µM)	> 64				> 240	> 240	> 64	> 64	T1/2 MICROSOMES (M) [18]: > 60 min
C#CC[C@H](NC(=O)c1ccc(NC(=O)c2ccc(C#N)cc2)cc1)C(=O)Nc1ccc(C(=O)Nc2ccc(C(=O)Nc3ccc(C(=O)O)cc3)nc2OC(C)C)cc1 [Cmpd. 8]	> 60	> 64		> 64		> 64	> 64	> 64	> 64	≤ 0.03	> 64		8 (≈ 10.3 µM)				> 240	> 240	0.25 (≈ 0.321 µM)	> 64	T1/2 MICROSOMES (M) [18]: > 60 min
CO[C@@H](C(N)=O)[C@H](NC(=O)c1ccc(NC(=O)c2ccc(C#N)cc2)cc1)C(=O)Nc1ccc(C(=O)Nc2ccc(C(=O)Nc3ccc(C(=O)O)cc3)c(C(F)F)c2OC(C)C)cc1 [Cmpd. 9]		> 8	> 64	> 8	> 64	> 64	> 64	> 64	> 64	> 8	> 64	> 64	> 8	> 8	> 8	> 64			> 64	> 64	antibacterial activity on the pathogen panel, in words [21]: complete elimination of activity
C#CC[C@H](NC(=O)c1ccc(NC(=O)c2ccc(C#N)cc2)cc1)C(=O)Nc1ccc(C(=O)Nc2ccc(C(=O)Nc3ccc(C(=O)O)cc3)c(O)c2CC(C)C)cc1 [Cmpd. 11]	> 60	> 64	> 64	0.25 (≈ 0.316 µM)	> 64	> 64	16 to 32 (≈ 20.2 to 40.5 µM)	> 64	8 (≈ 10.1 µM)	< 0.03	> 64	> 64	> 64	< 0.03	1 (≈ 1.26 µM)	> 64	> 240	> 240	< 0.03	> 64	T1/2 MICROSOMES (M) [18]: > 60 min
C#CC[C@H](NC(=O)c1ccc(NC(=O)c2ccc(C#N)cc2)cc1)C(=O)Nc1ccc(C(=O)Nc2ccc(CNc3ccc(C(=O)O)cc3)c(O)c2OC(C)C)cc1 [Cmpd. 41]		> 8	> 64	1 to 2 (≈ 1.28 to 2.57 µM)	> 64	> 64	16 to 32 (≈ 20.5 to 41.1 µM)	> 64	> 64	> 64	> 64	> 64	> 8	> 8	> 8	> 64			16 to 32 (≈ 20.5 to 41.1 µM)	> 64	antibacterial activity on the pathogen panel, in words [21]: inactive
C#CC[C@H](NC(=O)c1ccc(NC(=O)c2ccc(C#N)cc2)cc1)C(=O)Nc1ccc(C(=O)Nc2ccc(-c3cn(-c4ccc(C(=O)O)cc4)nn3)c(O)c2OC(C)C)cc1 [Cmpd. 43]		> 8	> 64	> 8	> 64	> 64	> 64	> 64	> 64	> 64	> 64	> 64	> 8	> 8	> 8	> 64			> 64	> 64	antibacterial activity on the pathogen panel, in words [21]: inactive
C#CC[C@H](NC(=O)c1ccc(NC(=O)c2ccc(C#N)cc2)cc1)C(=O)Nc1ccc(C(=O)Nc2ccc(-c3ccc(C(=O)O)cc3)c(O)c2OC(C)C)cc1 [Cmpd. 44]		> 64	> 64	> 64	> 64	> 64	> 64	> 64	> 64	> 64	> 64	> 64	> 64	> 64	> 64	> 64			< 0.03	> 64	antibacterial activity on the pathogen panel, in words [21]: inactive
